Assay results reported in patent EP2722048B1, “Iron bisglycinate chelate for use in treating anaemia” (Laboratori Baldacci S.p.A., priority 2012, dated 2014).
Where “and” joins values, the source holds several entries; their conditions need not be identical. Equal entries are not always repeated.

Legend:
[1] = system: patients before the hip arthroplasty operation; assay: Test 2: treatment for 10 days after taking 350 ml blood before hip arthroplasty, haematic parameters; format: in vivo; settings: administration of iron sulphate; data in the applicant's possession
[2] = system: patients who had to undergo surgery and who suffered from slight sideropenic anaemia; settings: t=0, before treatment, individual patients, 'Average' = mean
Experimental: An experimental study was conducted on patients who had to undergo surgery and who suffered from slight sideropenic anaemia.
The aim of the treatment with iron salts was to restore and/or increase the haemoglobin level before surgery in such a manner as to minimise morbidity and/or mortality after surgery.
5 patients were treated with 2 effervescent tablets (prepared as in example 1) per day of iron bisglycinate chelate for 30 days, equal to 28 mg of iron ion per day and 5 patients were treated with one tablet per day of iron sulphate equal to 105 mg of iron ion.
Heavy bleeding surgery took place 10 days after the start of treatment with the iron derivative, i.e. both with the iron bisglycinate chelate and with iron sulphate and the treatment with said iron derivative continued for the 20 days following surgery.

[3] = compared with mineral salts, for example iron sulphate; cited from earlier work
[4] = different values of pH of the gastrointestinal tract; cited from earlier work
[5] = system: reticulocytes of the anaemic patient; assay: Test 3: cytofluorometric analysis of reticulocytes in blood samples; format: in vivo; settings: for RET_IMM: immature reticulocytes: limits 0.00-0.50; for RETH: reticulocytes with high RNA content, highly immature: limits 0.0-10.0; for RETM: reticulocytes with average RNA content, immature on average: limits 0.0-40.0; for IRF: Immature Reticulocyte Function: limits 0.000-999.000; for MRV: Mean Reticulocyte Volume: limits 0-9999; for CRC: Corrected Reticulocyte Count: limits 0.75-2.30; for MFI: Mean Fluorescence Intensity: limits 5.0-30.0; for RhC/C: reticulocyte haemoglobin content: limits 28.9-33.9; for RETL: reticulocytes without RNA, poorly immature (or mature): limits 65.0-97.0
Experimental: In order to be able to quantify the increase in reticulocytes, cytofluorometry analyses were conducted on samples of blood taken from the patient both before the treatment with iron bisglycinate chelate (Table 3) and after 20 days of treatment (Table 4).
The cytofluorometric analysis (fluorescence flow cytometry CFM) is conducted here as an assessment of the fluorescence obtained with the step of a laser beam of a sample of cells to be examined; in any case, further conventional techniques can be used for the purpose of the present invention.

[6] = system: patients before the hip arthroplasty operation; assay: Test 2: treatment for 10 days after taking 350 ml blood before hip arthroplasty, haematic parameters; format: in vivo; settings: individual patients, 'Average' row = mean
Experimental: For about 10 days, before the hip arthroplasty operation, blood is usually taken from the patients (350 ml) so as to have available, if necessary, a quantity of blood that is sufficient for an autologous transfusion.
10 days after the blood is removed, the haematic parameters of the various patients are assessed, the intervention is performed and then the treatment with iron bisglycinate chelate continues for another 30 days after surgery.

[7] = t=20, after 20 days of treatment

Compound: O=S(=O)([O-])[O-].[Fe+2] [Iron sulphate, reference compound]
- average reduction of the haemoglobin after taking 350 ml [1]: 1.5 g of Hb
- Iron [2]: 110 µg/100ml and 85 µg/100ml
- Haemoglobin ([2]; bisglycinate 28 mg iron ion/day, sulphate 105 mg iron ion/day): 12.5 g/100ml and 11.6 g/100ml

Compound: NCC(=O)[O-].NCC(=O)[O-].[Fe+2] [Iron bisglycinate chelate]
- bioavailability [3]: greater bioavailabilty than mineral salts
- stability of the bond (hydrolysis) [4]: does not hydrolyse
- increase in the percentage of immature reticulocytes (RET_IMM) ([5]; after 20 days of treatment versus before the treatment): 75%
- RET_IMM: immature reticulocytes ([5]; t=0, before treatment): 0.08%
- RETH: reticulocytes with high RNA content, highly immature ([5]; t=0, before treatment): 1.8%
- RETM: reticulocytes with average RNA content, immature on average ([5]; t=0, before treatment): 9.8%
- IRF: Immature Reticulocyte Function ([5]; t=0, before treatment): 0.156
- MRV: Mean Reticulocyte Volume ([5]; t=0, before treatment): 86 µm^3
- CRC: Corrected Reticulocyte Count ([5]; t=0, before treatment): 1.56%
- MFI: Mean Fluorescence Intensity ([5]; t=0, before treatment): 15.1%
- RhC/C: reticulocyte haemoglobin content ([5]; t=0, before treatment): 28.1 pg
- RETL: reticulocytes without RNA, poorly immature (or mature) ([5]; t=0, before treatment): 88.6%
- RET_IMM: immature reticulocytes [5, 7]: 0.14%
- RETH: reticulocytes with high RNA content, highly immature [5, 7]: 15.4%
- RETM: reticulocytes with average RNA content, immature on average [5, 7]: 32.3%
- IRF: Immature Reticulocyte Function [5, 7]: 0.534
- MRV: Mean Reticulocyte Volume [5, 7]: 100 µm^3
- CRC: Corrected Reticulocyte Count [5, 7]: 1.87%
- MFI: Mean Fluorescence Intensity [5, 7]: 29.8%
- RhC/C: reticulocyte haemoglobin content [5, 7]: 29.4 pg
- RETL: reticulocytes without RNA, poorly immature (or mature) [5, 7]: 52.3%
- Haemoglobin ([6]; t=0, start of treatment after taking 350 ml blood): 12.5 g/100ml and 13.2 g/100ml (2×) and 12.9 g/100ml (2×) and 13.3 g/100ml and 12.7 g/100ml
- % Reticulocytes ([6]; t=0): 1.1% (3×) and 0.6% and 2.1% and 1.4% and 0.8%
- Ferritin ([6]; t=0): 97 ng/mL and 132 ng/mL and 315 ng/mL and 146 ng/mL and 43 ng/mL and 53 ng/mL and 67 ng/mL
- Sideraemia ([6]; t=0): 76 µg/100ml and 67 µg/100ml and 58 µg/100ml and 112 µg/100ml and 75 µg/100ml and 87 µg/100ml
- % Reticulocytes ([6]; t=10days, 2 tablets a day): 1.5% and 0.9% and 16% and 23% and 1.2% and 25% and 1.7%
- Ferritin ([6]; t=10days, 2 tablets a day): 103 ng/mL and 72 ng/mL and 237 ng/mL and 95 ng/mL and 25 ng/mL and 34 ng/mL and 67 ng/mL
- Haemoglobin ([6]; t=10days, 2 tablets a day): 11.8 g/100ml (2×) and 12.7 g/100ml and 12.2 g/100ml and 12.8 g/100ml and 12.9 g/100ml and 12.1 g/100ml
- Sideraemia ([6]; t=10days, 2 tablets a day): 58 µg/100ml and 120 µg/100ml and 80 µg/100ml and 62 µg/100ml and 65 µg/100ml and 84 µg/100ml and 69 µg/100ml
